# Assay results published in paper PMC6332339, “Synthesis, Characterization, and Anti-Cancer Activity of Some New N′-(2-Oxoindolin-3-ylidene)-2-propylpentane hydrazide-hydrazones Derivatives” (Molecules, 2015).
# Entries after “also recorded” stand apart in the source; their conditions may differ.
# Key:
# [1] = system: HepG2 human liver cancer cell line; test: MTT cytotoxicity assay in HepG2 cells; assay type: cell-based; conditions: 24 h treatment, mean ± SD; for IC50: Homo sapiens
# Description: (§1) The cyto-toxicity activity was measured in vitro in HepG2, Jurkat, and HEK 293 cells using the MTT […] colorimetric assay. For comparison, 5-Fluorouracil (5-FU) was used as a standard anti-cancer drug. Treatment with dimethylsulfoxide (DMSO) was used as a control for the cancer cells.
# (§2) The stock concentration of the entire compound in DMSO was 10 mM and this concentration was used to prepare the working dilution. The final DMSO concentration used in the experiments was ≤0.5% as the working concentration. Human liver cancer cell lines (HepG2), human leukemia cell line (Jurkat), and human embryonic kidney cell line (HEK293) cells were cultured in high glucose Dulbecco’s Modified Eagle Medium (DMEM: Life technologies cat #11995073) supplemented with 10% Fetal bovine serum (FBS: Life technologies cat #16000044) in a humidified incubator with 5% CO2 at 37 °C. Around 2 ×10^3 cells were seeded in each well of a 24-well cell culture plate and were allowed to adhere and grow for 24 h. The Jurkat cells grow in suspension so they were cultured and allowed to grow overnight before the addition of compounds. The compounds in serial dilutions (1, 3, 15, 45, 100, and 300 μM) were added after 24 h of culture and the cells were cultured for another 24 h at 37 °C. The cell viability was determined in each experiment using MTT 1-(4,5-dimethylthiazol-2-yl)-3,5-diphenylformazan colorimetric assay. Briefly, the treated or untreated cells were trypsenized and centrifuged, and the resulting pellet was re-suspended in 100 μL of DMEM serum-free medium and incubated at 37 °C for 2 h. After incubation, 20 μL of MTT solution (5 mg/mL in PBS: Sigma Aldrich cat #M2003) was added to each well and further incubated for 2 h. The plate was centrifuged at […] for 10 min then the medium was removed from each well and 2-propanol containing 0.04 M HCl was added to dissolve the formazan produced in the cells. The optical density of the formazan product in solution was measured with a microplate reader at 540 nm. The experiment was conducted in triplicate. Data were calculated as percent of cell viability by the following formula:
# (§3) % cell viability = (Mean absorbance in test wells/Mean absorbance in control wells) × 100 (1)
# (§4) The IC50 values were calculated from the means of six different concentrations by Bio Data Fit 1.02 using the software Bio Tool Kit (Version 300; Chang Bioscience Inc., Castro Valley, CA, USA) and online program http://ic50.tk/index.html.
# [2] = system: Jurkat human leukaemia cell line; test: MTT cytotoxicity assay in Jurkat cells; assay type: cell-based; conditions: 24 h treatment, mean ± SD
# Description: as §1, §2, §3, §4
# [3] = system: HEK293 human embryonic kidney cell line; test: MTT cytotoxicity assay in normal HEK293 cells; assay type: cell-based; conditions: 24 h treatment, mean ± SD; for IC50: Homo sapiens
# Description: as §1, §2, §3, §4
# [4] = system: human tumour cell lines (HepG2 and Jurkat); test: MTT assay, summary over the tested human tumour cell lines; assay type: cell-based; conditions: summary over HepG2 and Jurkat cells
# Description: as §1, §2, §3, §4
Structure (SMILES),IC50 [4],melting point,IC50 (μM) HepG2 [1],IC50 [1],"IC50 ([2]; Homo sapiens, Jurkat, 24 h)",IC50 [3],IC50 ([2]; Homo sapiens),IC50 (μM) HEK293 [3],IC50 (μM) Jurkat [2],IC50 [2]
"CCCC(CCC)C(=O)O [Compound 1, Valproic acid, reference compound]",–,–,did not show promising anti-cancer activity,69.7 ± 40.8 µM,79.4 ± 40.7 µM,63 ± 38.2 µM,–,–,–,–
"CCCC(CCC)C(=O)NN [Compound 2, Valproic Hydrazide]",–,–,did not show promising anti-cancer activity,68.5 ± 37.1 µM,> 100 µM,> 100 µM,–,–,–,–
O=C1Nc2ccccc2C1=O [Compound 3a],–,–,no anti-cancer activity,> 100 µM,> 100 µM,16.7 ± 50 µM,–,–,–,–
CN1C(=O)C(=O)c2ccccc21 [Compound 3e],3 to 7 µM,–,–,2.82 µM,–,> 100 µM,7.13 µM,no activity,–,–
O=C1C(=O)N(Cc2ccccc2)c2ccccc21 [Compound 3f],3 to 7 µM,–,–,3.13 µM,3.13 µM,> 100 µM,–,no activity,strong activity,–
"CC(=O)N1C(=O)C(=O)c2ccccc21 [Compound 3h, N-acetylisatin]",–,–,no anti-cancer activity,> 100 µM,> 100 µM,> 100 µM,–,–,–,–
"CCCC(CCC)C(=O)N/N=C1\C(=O)N(CCBr)c2ccccc21 [Compound 4g, (Z)-N′-(1-(2-Bromoethyl)-2-oxoindolin-3-ylidene)-2-propylpentane Hydrazide]",–,90 to 91 °C,no anti-cancer activity,> 100 µM,–,45.4 ± 48.9 µM,> 100 µM,–,–,–
"O=c1[nH]cc(F)c(=O)[nH]1 [Compound 5-FU, 5-Fluorouracil, reference compound]",32 to 50 µM,–,–,32.1 ± 48.1 µM,51.2 ± 47.4 µM,> 100 µM,–,–,–,–

# Second part, led by results:
IC50 [4],melting point,Structure (SMILES),IC50 (μM) HepG2 [1],IC50 [1],"IC50 ([2]; Homo sapiens, Jurkat, 24 h)",IC50 [3],IC50 ([2]; Homo sapiens),IC50 (μM) HEK293 [3],IC50 (μM) Jurkat [2],IC50 [2]
3 to 7 µM,175 to 176 °C,"CCCC(CCC)C(=O)N/N=C1\C(=O)Nc2ccccc21 [Compound 4a, (Z) N′-(2-Oxoindolin-3-ylidene)-2-propylpentane Hydrazide]",inactive; also recorded: no anti-cancer activity,> 100 µM,3.14 µM,> 100 µM,–,inactive,strong activity,3.15 µM
–,172 to 173 °C,"CCCC(CCC)C(=O)N/N=C1\C(=O)Nc2ccc(Br)cc21 [Compound 4b, (Z) N′-(5-Bromo-2-oxoindolin-3-ylidene)-2-propylpentane Hydrazide]",no anti-cancer activity,> 100 µM,> 100 µM,26.1 ± 31.3 µM,–,–,–,–
3 to 7 µM,154 to 156 °C,"CCCC(CCC)C(=O)N/N=C1\C(=O)Nc2ccc(Cl)cc21 [Compound 4c, (Z) N′-(5-Chloro-2-oxoindolin-3-ylidene)-2-propylpentane Hydrazide]",–,4.39 µM,2.9 µM,4.77 µM,–,–,strong activity,–
–,180 to 182 °C,"CCCC(CCC)C(=O)N/N=C1\C(=O)Nc2ccc(F)cc21 [Compound 4d, (Z) N′-(5-Fluoro-2-oxoindolin-3-ylidene)-2-propylpentane Hydrazide]",–,> 100 µM,> 100 µM,> 100 µM,–,–,–,–
3 to 7 µM,154 to 156 °C,"CCCC(CCC)C(=O)N/N=C1\C(=O)N(C)c2ccccc21 [Compound 4e, (Z) N′-(1-Methyl-2-oxoindolin-3-ylidene)-2-propylpentane Hydrazide]",–,7.61 µM,3.19 µM,> 100 µM,–,no activity,–,–
–,170 to 172 °C,"CCCC(CCC)C(=O)N/N=C1\C(=O)N(Cc2ccccc2)c2ccccc21 [Compound 4f, (Z) N′-(1-Benzyl-2-oxoindolin-3-ylidene)-2-propylpentane Hydrazide]",no anti-cancer activity,> 100 µM,> 100 µM,> 100 µM,–,–,–,–
–,180 to 181 °C,"CCCC(CCC)C(=O)NNC(=O)C(=O)c1ccccc1NC(C)=O [Compound 4h, N-(2-(2-Oxo-2-(2-(2-propylpentanoyl)hydrazinyl)acetyl)phenyl) Acetamide]",no anti-cancer activity,> 100 µM,> 100 µM,> 100 µM,–,–,–,–
